Data published in PubChem BioAssay (NCI).
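In this assay, cells in 96-well plates receive the compound at five concentrations for 48 hours. Endpoints are linearly interpolated between the surrounding concentrations. TGI denotes the concentration required for complete inhibition of growth.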

Legend:
Experiment in all cases: NCI anticancer screen, dose series, 48 h
[1] = system: HOP-62 NSCLC
[2] = system: NCI-H460 lung
[3] = system: A498 renal
[4] = system: KM12 colon
[5] = system: SF-268 CNS
[6] = system: SK-MEL-5 melanoma
[7] = system: TK-10 renal
[8] = system: 786-0 renal
[9] = system: M19-MEL melanoma
[10] = system: SNB-19 CNS
[11] = system: SK-MEL-2 melanoma
[12] = system: SW-620 colon
[13] = system: DMS 114 small cell lung
[14] = system: MALME-3M melanoma
[15] = system: SR leukemia
[16] = system: MOLT-4 leukemia
[17] = system: IGROV1 ovarian
[18] = system: CAKI-1 renal
[19] = system: OVCAR-5 ovarian
[20] = system: UACC-62 melanoma
[21] = system: COLO 205 colon
[22] = system: K-562 leukemia
[23] = system: HCT-15 colon
[24] = system: OVCAR-8 ovarian
[25] = system: KM20L2 colon
[26] = system: A549 NSCLC
[27] = system: CCRF-CEM leukemia
[28] = system: RPMI-8226 leukemia
[29] = system: SNB-75 CNS
[30] = system: ACHN renal
[31] = system: UO-31 renal
[32] = system: DMS 273 small cell lung
[33] = system: NCI-H522 lung
[34] = system: EKVX NSCLC
[35] = system: DLD-1 colon
[36] = system: SK-OV-3 ovarian
[37] = system: M14 melanoma
[38] = system: LXFL 529 NSCLC
[39] = system: SF-539 CNS
[40] = system: SNB-78 CNS
[41] = system: NCI-H226 lung
[42] = system: NCI-H23 lung
[43] = system: SN12C renal
[44] = system: XF 498 CNS
[45] = system: OVCAR-3 ovarian
[46] = system: U251 CNS
[47] = system: HOP-92 NSCLC
[48] = system: HCT-116 colon
[49] = system: HT29 colon
[50] = system: HL-60(TB) leukemia
[51] = system: HCC-2998 colon
[52] = system: OVCAR-4 ovarian
[53] = system: RXF 393 renal
[54] = system: UACC-257 melanoma
[55] = system: SK-MEL-28 melanoma
[56] = system: LOX IMVI melanoma
[57] = system: SF-295 CNS

Measured: TGI

COc1ccc(OC)c(NC(=O)C2=C(C)NC(C)=C(C(=O)Nc3cc(OC)ccc3OC)C2c2ccco2)c1
not listed: [50] | [51] | [52] | [53] | [54] | [55] | [56] | [57]
> 100 µM: all other assays above

CCN(CC)CCC(=O)NC1c2ccccc2Oc2c(C)cccc21 (centres undefined)
not listed: [3] | [4] | [11] | [14] | [18] | [25] | [33] | [45] | [47] | [57]
> 100 µM: all other assays above

Cn1c(=O)c2nc(N3CCOCC3)cnc2n(C)c1=O
not listed: [8] | [41] | [53] | [56]
> 100 µM: all other assays above
